The source made the active and inactive calls.
What was measured:
[1] = biological target: Cytochrome P450 2C9 (Homo sapiens, UniProt P11712)
[2] = luciferase reporter signal suppression in cells – H4 neuroglioma cells, luminescence, dose response (AID 1990); format: functional, cell-based
[3] = test system: BJ; assay: BJ-TERT fibroblast viability loss – cell-based, RAS-independent, luminescence, dose response (AID 1933); format: functional; settings: Homo sapiens
[4] = Luminescence Cell-Based Dose Response HTS to Identify Inhibitors of 5'UTR Stem-Loop Driven Prion Protein mRNA Translation in H4 Neuroglioblastoma Cells. [Related pubchem assays: 1827 (Project Summary), 1813 (Primary HTS)]; format: functional
[5] = test system: BJ; assay: cells; format: functional, cell-based; settings: Homo sapiens
[6] = test system: BJ; assay: BJ-TERT-LT-ST fibroblast viability loss – cell-based, RAS-independent, luminescence, dose response (AID 1935); format: functional; settings: Homo sapiens;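 note: BJ fibroblasts immortalized with TERT plus LT and ST oncogenes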
[7] = DRD fibroblast viability loss – cell-based, non-viral oncogenic, luminescence, dose response (AID 1934); format: functional; settings: Homo sapiens
[8] = biological target: T1, Aminopeptidase N (Plasmodium falciparum FcB1/Columbia, UniProt O96935); assay: malaria alanyl aminopeptidase activity blockers – biochemical, fluorogenic H-Leu-NHMec substrate, 1536-well (AID 1445); design: species or system Plasmodium falciparum 3D7, 3D7
T1 sequence (O96935 whole entry): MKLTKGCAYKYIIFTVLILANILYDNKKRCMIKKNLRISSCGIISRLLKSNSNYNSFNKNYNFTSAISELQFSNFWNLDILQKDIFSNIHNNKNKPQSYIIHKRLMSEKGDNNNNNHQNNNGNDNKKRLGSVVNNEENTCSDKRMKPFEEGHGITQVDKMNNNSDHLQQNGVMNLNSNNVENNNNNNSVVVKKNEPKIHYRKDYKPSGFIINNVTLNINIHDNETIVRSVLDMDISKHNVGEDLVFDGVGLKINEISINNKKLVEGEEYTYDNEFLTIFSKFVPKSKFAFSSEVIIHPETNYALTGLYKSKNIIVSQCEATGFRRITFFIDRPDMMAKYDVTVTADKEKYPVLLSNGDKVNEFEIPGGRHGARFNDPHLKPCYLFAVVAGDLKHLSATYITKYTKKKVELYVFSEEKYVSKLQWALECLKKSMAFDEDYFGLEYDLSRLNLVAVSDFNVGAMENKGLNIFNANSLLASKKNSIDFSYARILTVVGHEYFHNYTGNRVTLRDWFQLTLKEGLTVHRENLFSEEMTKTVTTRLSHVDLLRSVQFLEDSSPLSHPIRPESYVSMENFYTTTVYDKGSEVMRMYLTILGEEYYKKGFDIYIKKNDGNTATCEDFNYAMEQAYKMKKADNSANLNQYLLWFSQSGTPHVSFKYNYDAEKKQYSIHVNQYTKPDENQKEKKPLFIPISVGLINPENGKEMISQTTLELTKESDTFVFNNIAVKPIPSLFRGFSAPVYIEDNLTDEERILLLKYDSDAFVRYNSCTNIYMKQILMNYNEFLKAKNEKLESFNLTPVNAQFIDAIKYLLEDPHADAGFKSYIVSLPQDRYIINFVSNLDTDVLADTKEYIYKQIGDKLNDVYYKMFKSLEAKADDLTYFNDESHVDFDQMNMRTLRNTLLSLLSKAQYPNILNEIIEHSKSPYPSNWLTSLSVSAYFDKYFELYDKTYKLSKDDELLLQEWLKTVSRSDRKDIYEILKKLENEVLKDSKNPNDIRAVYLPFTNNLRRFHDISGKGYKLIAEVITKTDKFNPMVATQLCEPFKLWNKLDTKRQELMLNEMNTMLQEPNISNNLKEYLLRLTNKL

[9] = biological target: Genome polyprotein (dengue virus type 2, UniProt P29990); assay: flavivirus cap methylation enzyme inhibition – biochemical, confirmation dose response, primary screen (AID 588689); format: functional
Genome polyprotein, sequence (P29990 2492-3391 limits assumed): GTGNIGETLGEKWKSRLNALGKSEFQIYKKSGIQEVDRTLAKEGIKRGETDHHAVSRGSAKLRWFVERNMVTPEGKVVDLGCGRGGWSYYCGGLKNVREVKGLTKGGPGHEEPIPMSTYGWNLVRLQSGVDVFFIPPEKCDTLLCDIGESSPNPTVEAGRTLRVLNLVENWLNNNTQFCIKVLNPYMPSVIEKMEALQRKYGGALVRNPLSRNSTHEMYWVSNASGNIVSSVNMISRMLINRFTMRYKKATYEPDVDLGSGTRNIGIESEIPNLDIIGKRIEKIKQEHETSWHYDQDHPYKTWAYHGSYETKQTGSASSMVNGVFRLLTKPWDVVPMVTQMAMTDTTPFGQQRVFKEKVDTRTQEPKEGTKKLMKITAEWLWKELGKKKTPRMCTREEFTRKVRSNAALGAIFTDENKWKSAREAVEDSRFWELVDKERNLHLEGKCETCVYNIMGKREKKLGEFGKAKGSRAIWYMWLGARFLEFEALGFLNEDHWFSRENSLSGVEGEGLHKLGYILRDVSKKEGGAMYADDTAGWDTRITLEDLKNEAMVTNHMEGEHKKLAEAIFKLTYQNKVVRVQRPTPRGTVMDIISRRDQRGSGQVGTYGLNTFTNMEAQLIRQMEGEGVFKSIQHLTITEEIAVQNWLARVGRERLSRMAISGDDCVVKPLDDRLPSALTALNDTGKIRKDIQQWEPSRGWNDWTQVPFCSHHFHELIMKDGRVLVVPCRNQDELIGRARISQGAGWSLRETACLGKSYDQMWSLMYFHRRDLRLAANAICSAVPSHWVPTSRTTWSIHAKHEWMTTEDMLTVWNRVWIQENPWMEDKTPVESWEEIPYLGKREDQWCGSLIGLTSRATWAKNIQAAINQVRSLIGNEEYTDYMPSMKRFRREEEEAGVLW

[10] = viability of PTEN-deleted HCT116 cells – cell-based, HCT116 PTEN knockout, dose response (AID 1047); format: functional;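 note: HCT116 colon tumor cells with PTEN knocked out; cells exposed to compound for 60 hours before readout; potency for loss of cell viability measured by luminescence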
[11] = viability of HCT116 lacking mutant beta-catenin – cell-based, human colon tumor, dose response (AID 1045); format: functional;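 note: HCT116 colon tumor cells with beta catenin knocked out; cells exposed to compound for 60 hours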
[12] = Trypanosoma cruzi growth suppression in host cells – NIH3T3 host cells, beta-gal luminescence, confirmation (AID 2044); format: functional, cell-based;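 note: intracellular parasites grown in NIH/3T3 mouse fibroblasts as host cells; luminescent beta-galactosidase reporter signal from transgenic T. cruzi replicating inside host cells; inhibitors lower the luminescence signal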
[13] = NIH3T3 cell viability loss – ATP luminescence, mouse fibroblasts, counter-screen, dose response (AID 2010); format: functional, cell-based;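 note: cells exposed to compound for about 90 hours before reading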
[14] = cells; format: functional
[15] = biological target: T2, Cytochrome P450 1A2 (Homo sapiens, UniProt P05177);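 note: PubChem cytochrome P450 panel assay, CYP1A2 panel member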
T2 sequence (P05177 whole entry): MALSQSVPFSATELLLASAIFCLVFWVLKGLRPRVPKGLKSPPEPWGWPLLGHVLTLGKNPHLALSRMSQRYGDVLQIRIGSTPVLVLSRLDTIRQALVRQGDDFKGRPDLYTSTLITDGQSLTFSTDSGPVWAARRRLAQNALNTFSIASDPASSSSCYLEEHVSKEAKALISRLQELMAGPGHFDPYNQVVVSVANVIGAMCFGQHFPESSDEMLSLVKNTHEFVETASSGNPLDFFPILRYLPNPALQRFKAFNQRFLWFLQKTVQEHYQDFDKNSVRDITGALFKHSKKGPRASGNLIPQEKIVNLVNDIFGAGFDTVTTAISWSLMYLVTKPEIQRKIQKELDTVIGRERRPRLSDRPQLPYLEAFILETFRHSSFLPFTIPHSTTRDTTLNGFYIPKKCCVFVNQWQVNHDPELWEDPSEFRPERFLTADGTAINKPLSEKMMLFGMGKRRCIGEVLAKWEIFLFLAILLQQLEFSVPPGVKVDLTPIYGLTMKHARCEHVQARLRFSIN

[16] = biological target: Cytochrome P450 2C19 (Homo sapiens, UniProt P33261); assay: Cytochrome panel assay with activity outcomes. Panel member name: p450-cyp2c19 Compounds with AC50 equal or less than 10 uM are considered active; format: functional; settings: read-out: AC50
Cytochrome P450 2C19, sequence (P33261 whole entry): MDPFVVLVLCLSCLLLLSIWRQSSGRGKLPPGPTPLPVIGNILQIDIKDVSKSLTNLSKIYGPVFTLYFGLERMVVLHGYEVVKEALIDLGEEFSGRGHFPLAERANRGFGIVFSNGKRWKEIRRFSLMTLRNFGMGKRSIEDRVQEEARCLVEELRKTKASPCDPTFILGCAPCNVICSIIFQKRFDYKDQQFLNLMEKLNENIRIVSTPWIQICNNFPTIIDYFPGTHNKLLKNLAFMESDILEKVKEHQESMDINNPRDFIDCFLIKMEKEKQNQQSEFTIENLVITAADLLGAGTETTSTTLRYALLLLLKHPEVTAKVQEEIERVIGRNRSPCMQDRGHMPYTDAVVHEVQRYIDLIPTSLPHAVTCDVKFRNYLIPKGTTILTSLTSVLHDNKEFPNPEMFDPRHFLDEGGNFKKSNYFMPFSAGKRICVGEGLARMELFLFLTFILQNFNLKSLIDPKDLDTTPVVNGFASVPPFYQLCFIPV

[17] = biological target: Cytochrome P450 3A4 (Homo sapiens, UniProt P08684);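 note: CYP3A4 tested as one member of a cytochrome P450 panel screen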
Cytochrome P450 3A4, sequence (P08684 whole entry): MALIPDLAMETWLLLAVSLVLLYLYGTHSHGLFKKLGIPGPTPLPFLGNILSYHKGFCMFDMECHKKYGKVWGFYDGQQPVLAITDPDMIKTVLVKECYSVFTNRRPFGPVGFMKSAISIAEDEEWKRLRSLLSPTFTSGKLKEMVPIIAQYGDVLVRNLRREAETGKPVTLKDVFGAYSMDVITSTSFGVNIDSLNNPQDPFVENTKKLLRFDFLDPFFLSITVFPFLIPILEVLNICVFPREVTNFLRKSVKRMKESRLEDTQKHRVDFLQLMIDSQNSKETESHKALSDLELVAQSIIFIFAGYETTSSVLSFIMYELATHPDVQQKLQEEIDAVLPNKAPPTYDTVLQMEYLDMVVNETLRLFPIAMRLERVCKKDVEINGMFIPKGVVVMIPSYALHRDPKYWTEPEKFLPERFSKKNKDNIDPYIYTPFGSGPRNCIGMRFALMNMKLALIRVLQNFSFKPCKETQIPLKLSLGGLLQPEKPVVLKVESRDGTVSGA

[18] = test system: P388/ADR; assay: cells; format: functional; settings: Mus musculus
[19] = test system: SN12K1; assay: cells; format: functional; settings: Homo sapiens
[20] = test system: P388; assay: cells; format: functional; settings: Mus musculus
[21] = biological target: Cytochrome P450 2D6 (Homo sapiens, UniProt P10635);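 note: CYP2D6 member of a cytochrome P450 panel assay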
Cytochrome P450 2D6, sequence (P10635 whole entry): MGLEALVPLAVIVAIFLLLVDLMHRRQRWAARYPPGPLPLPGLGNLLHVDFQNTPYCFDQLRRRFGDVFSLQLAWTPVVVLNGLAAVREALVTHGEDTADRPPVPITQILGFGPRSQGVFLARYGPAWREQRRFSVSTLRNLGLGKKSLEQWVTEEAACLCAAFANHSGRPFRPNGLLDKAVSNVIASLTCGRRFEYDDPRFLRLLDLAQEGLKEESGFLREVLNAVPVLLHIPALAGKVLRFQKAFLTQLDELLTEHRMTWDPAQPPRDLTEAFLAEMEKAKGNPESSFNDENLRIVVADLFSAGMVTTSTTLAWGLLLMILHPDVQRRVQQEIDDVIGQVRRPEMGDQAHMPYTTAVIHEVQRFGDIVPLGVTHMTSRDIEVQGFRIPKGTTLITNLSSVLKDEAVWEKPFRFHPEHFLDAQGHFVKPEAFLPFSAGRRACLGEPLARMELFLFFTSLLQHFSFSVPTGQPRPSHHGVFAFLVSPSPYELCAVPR

[22] = P. falciparum Dd2 growth inhibitors, dose response, SYBR Green, cherry-picked samples (AID 1159567); format: functional, cell-based

Cytochrome P450 2C9, sequence (P11712 whole entry): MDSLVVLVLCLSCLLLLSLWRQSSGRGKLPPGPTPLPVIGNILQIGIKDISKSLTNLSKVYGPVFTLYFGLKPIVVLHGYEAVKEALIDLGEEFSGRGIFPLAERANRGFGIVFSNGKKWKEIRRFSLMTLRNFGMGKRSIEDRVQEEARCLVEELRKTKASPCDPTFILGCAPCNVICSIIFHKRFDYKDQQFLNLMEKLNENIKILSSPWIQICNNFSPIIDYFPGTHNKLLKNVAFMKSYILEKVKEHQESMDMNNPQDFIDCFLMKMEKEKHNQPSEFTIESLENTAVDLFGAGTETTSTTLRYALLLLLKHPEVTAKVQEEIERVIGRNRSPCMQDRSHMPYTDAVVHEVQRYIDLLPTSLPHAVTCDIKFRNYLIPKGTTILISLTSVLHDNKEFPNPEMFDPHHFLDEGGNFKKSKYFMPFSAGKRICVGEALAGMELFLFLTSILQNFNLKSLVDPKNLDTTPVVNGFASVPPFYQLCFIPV

## CN(C)c1nc(-c2cccnc2)nc2ccccc12
[1]
  AC50: inconclusive

## COc1ccc(-n2c(SC(C)C(=O)Nc3ncc(Cl)cc3Cl)nc3ccccc32)cc1 (stereo unspecified)
[2]
  EC50: 12.6 µM (active)
[3]
  EC50: 29.8 µM (active)
[4]
  EC50: 38.4 µM (active)
[5]
  EC50: 22.3 µM (active)
[6]
  EC50: > 150 µM (not active)
[7]
  EC50: 89.7 µM (active)

## Cc1cccc(C2C3=C(O)c4ccccc4C3=Nc3nn(-c4ccccc4)c(O)c32)c1 (stereo unspecified)
[8]
  IC50: 38.3 µM (active)
[9]
  IC50: 59.4 µM (active)

## COCCCNC(=O)c1cc2c(=O)n(C)c3ccccc3c2n1C
[10]
  EC50: 14.4 µM (active)
[11]
  EC50: 15.4 µM (active)

## OC(CNc1ccccc1)COc1ccc(OCC(O)CNc2ccccc2)cc1 (stereo unspecified)
[12]
  EC50: 3.54 µM (active)
[10]
  EC50: 15.6 µM (active)
[13]
  EC50: > 60 µM (not active)
[11]
  EC50: 15 µM (active)

## COc1cccc2cc(-c3nc4ccccc4[nH]3)c(=O)oc12
[14]
  IC50: < 0.1 µM (active)

## COc1ccc(CCN2C(=O)c3ccccc3NC2c2cc(Cl)c(O)c(OC)c2)cc1 (stereo unspecified)
[3]
  EC50: 11.3 µM (inconclusive)
[5]
  EC50: > 150 µM (inconclusive)
[6]
  EC50: 25.7 µM (inconclusive)
[7]
  EC50: 12.9 µM (active)

## O=C(Cc1ccc(Cl)cc1)NNC(=O)Nc1cccc2ccccc12
[15]
  AC50: 2.51 µM (inconclusive)
[1]
  AC50: inconclusive

## Cc1ccc(C)c(NC(=O)Cn2nnc(C(=O)Nc3c(C)cccc3C)c2N)c1
[16]
  AC50: 17.8 µM (inconclusive)
[1]
  AC50: inconclusive

## O=C(/C=C/c1ccccc1Cl)NCCN1CCOCC1
[16]
  AC50: 5.01 µM (inconclusive)
[17]
  AC50: 15.8 µM (inconclusive)
[1]
  AC50: inconclusive

## COc1ccc(S(=O)(=O)N/N=C/C(=O)O)cc1
[18]
  GI50: 212 µM (inactive)
[19]
  GI50: 360 µM (inactive)
[20]
  GI50: 255 µM (inactive)

## CNC(=O)OCc1nc(SC)n(C)c1COC(=O)NC
[18]
  GI50: 147 µM (inactive)
[19]
  GI50: 115 µM (inactive)
[20]
  GI50: 75 µM (inactive)

## C/C=C(\C)c1cc(=O)c2c(C)cc3c(c2o1)C(=O)c1c(O)c(C2CC(C)(N(C)C)C(O)C(C)O2)cc(C2CC(N(C)C)C(O)C(C)O2)c1C3=O (stereo unspecified)
[18]
  GI50: 3.08 µM (inactive)
[19]
  GI50: 1.26 µM (inactive)
[20]
  GI50: 0.964 µM (active)

## Cc1cc(C(=O)N/N=C/c2ccc3c(c2)OCO3)c2ccccc2n1
[3]
  EC50: 12.7 µM (active)
[5]
  EC50: 33.6 µM (active)
[6]
  EC50: 20.9 µM (active)
[7]
  EC50: 22.7 µM (active)

## Cn1cccc1/C=N/NC(=O)c1sc2ccccc2c1Cl
[21]
  AC50: 10 µM (inconclusive)
[1]
  AC50: inconclusive

## COc1cc(C2c3cc4c(cc3[C@@H](Nc3ccc(C#N)cc3)C3COC(=O)[C@H]23)OCO4)cc(OC)c1O (stereo partly specified)
[18]
  GI50: 0.352 µM (active)
[19]
  GI50: 0.0736 µM (active)
[20]
  GI50: 0.00998 µM (active)

## COc1ccccc1S(=O)(=O)N1[C@@H]2CNC[C@H]1[C@H]2c1ccc(-c2ccccc2C)cc1
[22]
  AC50: 27.7 µM (active)

— ChEMBL document CHEMBL1201862, “PubChem BioAssay data set” (2004)
